For the assay, the target named is MCH receptor (Homo sapiens, UniProt Q99705). Nature of the assay: Receptor binding assay with Radiolabelled MCH Ligand. Set-up: expressed in transfected cells; host or cells: 293 cells (human kidney, ATCC), transient transfection; crude membranes. As to conditions: class by percent of control at 10^-7 M or IC50. The source says:
In addition to the methods described herein, another means for evaluating a test compound is by determining binding affinities to the MCH receptor. This type of assay generally requires a radiolabelled ligand to the MCH receptor. Absent the use of known ligands for the MCH receptor and radiolabels thereof, compounds of Formula (I) can be labelled with a radioisotope and used in an assay for evaluating the affinity of a test compound to the MCH receptor.
A radiolabelled MCH compound of Formula (I) can be used in a screening assay to identify/evaluate compounds. In general terms, a newly synthesized or identified compound (i.e., test compound) can be evaluated for its ability to reduce binding of the “radiolabelled compound of Formula (I)” to the MCH receptor. Accordingly, the ability to compete with the “radio-labelled compound of Formula (I)” or Radiolabelled MCH Ligand for the binding to the MCH receptor directly correlates to its binding affinity of the test compound to the MCH receptor.
293 cells (human kidney, ATCC), transiently transfected with 10 μg human MCH receptor and 60 μl Lipofectamine (per 15-cm dish), are grown in the dish for 24 hours (75% confluency) with a media change and removed with 10 mL/dish of Hepes-EDTA buffer (20 mM Hepes+10 mM EDTA, pH 7.4). The cells are then centrifuged in a Beckman Coulter centrifuge for 20 minutes, 17,000 rpm (JA-25.50 rotor). Subsequently, the pellet is resuspended in 20 mM Hepes+1 mM EDTA, pH 7.4 and homogenized with a 50-mL Dounce homogenizer and again centrifuged. After removing the supernatant, the pellets can be stored at −80° C., until used in binding assay. When used in the assay, membranes are thawed on ice for 20 minutes and then 10 mL of incubation buffer (20 mM Hepes, 1 mM MgCl2, 100 mM NaCl, pH 7.4) added. The membranes are then vortexed to resuspend the crude membrane pellet and homogenized with a Brinkmann PT-3100 Polytron homogenizer for 15 seconds at setting 6. The concentration of membrane protein is determined using the BRL Bradford protein assay.
For total binding, a total volume of 50 ul of appropriately diluted membranes (diluted in assay buffer containing 50 mM Tris HCl (pH 7.4), 1 mM MgCl2, and 1 mM EDTA; 5-50 ug protein) is added to 96-well polyproylene microtiter plates followed by addition of 100 μl of assay buffer and 50 μl of Radiolabelled MCH Ligand. For nonspecific binding, 50 μl of assay buffer is added instead of 100 μl and an additional 50 μl of 10 uM cold MCH is added before 50 μl of Radiolabelled MCH Ligand is added. Plates are then incubated at room temperature for 60-120 minutes. The binding reaction is terminated by filtering assay plates through a Microplate Devices GF/C Unifilter filtration plate with a Brandell 96-well plate harvester followed by washing with cold 50 mM Tris HCl, pH 7.4 containing 0.9% NaCl. Then, the bottom of the filtration plate are sealed, 50 ul of Optiphase Supermix is added to each well, the top of the plates are sealed, and plates are counted in a Trilux MicroBeta scintillation counter. For compound competition studies, instead of adding 100 μl of assay buffer, 100 μl of appropriately diluted test compound is added to appropriate wells followed by addition of 50 μl of Radiolabelled MCH Ligand.
The test compounds are initially assayed at 1 and 0.1 μM and then at a range of concentrations chosen such that the middle dose would cause about 50% inhibition of a Radiolabelled MCH Ligand binding (i.e., IC50). Specific binding in the absence of test compound (BO) is the difference of total binding (BT) minus non-specific binding (NSB) and similarly specific binding (in the presence of test compound) (B) is the difference of displacement binding (BD) minus non-specific binding (NSB). IC50 is determined from an inhibition response curve, logit-log plot of % B/BO vs. concentration of test compound.
Ki is calculated by the Cheng and Prustoff transformation: […]

Chain of MCH receptor (Q99705 whole entry): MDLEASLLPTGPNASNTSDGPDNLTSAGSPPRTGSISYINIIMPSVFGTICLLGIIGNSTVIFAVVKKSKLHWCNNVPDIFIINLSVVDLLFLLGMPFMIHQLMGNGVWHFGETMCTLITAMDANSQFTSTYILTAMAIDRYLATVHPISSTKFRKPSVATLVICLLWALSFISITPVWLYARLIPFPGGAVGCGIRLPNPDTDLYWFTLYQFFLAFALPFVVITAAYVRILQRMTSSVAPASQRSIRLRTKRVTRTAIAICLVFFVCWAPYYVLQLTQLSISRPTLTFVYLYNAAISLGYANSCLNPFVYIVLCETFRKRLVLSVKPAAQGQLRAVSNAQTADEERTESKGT

Regarding `Cc1nc(N[C@H]2CC[C@@H](NC(=O)C(C)(C)Oc3ccc(Cl)cc3)CC2)cc(N(C)C)n1` [compound 268], the class is recorded as 3 (Class 3: The value of percent of control at 10^−7 M was more than 60% or the value of IC50 was more than 200 nM.).
To `Cc1nc(N[C@H]2CC[C@@H](NC(=O)CCCc3ccccc3)CC2)cc(N(C)C)n1` [compound 337] belongs 3 (Class 3: The value of percent of control at 10^−7 M was more than 60% or the value of IC50 was more than 200 nM.); to `Cc1nc(N[C@H]2CC[C@@H](NCCc3ccc(F)cc3)CC2)cc(N(C)C)n1` [compound 395], 3 (Class 3: The value of percent of control at 10^−7 M was more than 60% or the value of IC50 was more than 200 nM.); to `Cc1nc(N[C@H]2CC[C@@H](NCc3ccc(F)cc3C(F)(F)F)CC2)cc(N(C)C)n1` [compound 394], 3 (Class 3: The value of percent of control at 10^−7 M was more than 60% or the value of IC50 was more than 200 nM.).
Consider `CCOC(=O)c1c(S(=O)(=O)N[C@H]2CC[C@@H](Nc3cc(N(C)C)nc(C)n3)CC2)c(-c2ccccc2)n(-c2ccccc2)c1C` [compound 506], for which the class is reported as 3 (Class 3: The value of percent of control at 10^−7 M was more than 60% or the value of IC50 was more than 200 nM.).
For `Cc1nc(N[C@H]2CC[C@@H](NS(=O)(=O)c3ccc4c(c3)CN(C(=O)C(F)(F)F)CC4)CC2)cc(N(C)C)n1` [compound 509], the class was 3 (Class 3: The value of percent of control at 10^−7 M was more than 60% or the value of IC50 was more than 200 nM.).
As to `Cc1nc(N[C@H]2CC[C@@H](NC(=O)c3cn(S(=O)(=O)c4ccccc4)c4ccccc34)CC2)cc(N(C)C)n1` [compound 348], the class is reported as 3 (Class 3: The value of percent of control at 10^−7 M was more than 60% or the value of IC50 was more than 200 nM.).
Take `Cc1nc(N[C@H]2CC[C@@H](NC(=O)CCc3ccccc3)CC2)cc(N(C)C)n1` [compound 258]: the class is 3 (Class 3: The value of percent of control at 10^−7 M was more than 60% or the value of IC50 was more than 200 nM.).
As to `CCCCCc1ccc(C(=O)N[C@H]2CC[C@@H](Nc3cc(N(C)C)nc(C)n3)CC2)cc1` [compound 252], the class is recorded as 3 (Class 3: The value of percent of control at 10^−7 M was more than 60% or the value of IC50 was more than 200 nM.).
For the compound `Cc1nc(N[C@H]2CC[C@@H](NC(=O)OCc3ccccc3Cl)CC2)cc(N(C)C)n1` [compound 468], the class is listed as 3 (Class 3: The value of percent of control at 10^−7 M was more than 60% or the value of IC50 was more than 200 nM.).
To `Cc1nc(N[C@H]2CC[C@@H](NC(=O)OCC(Cl)(Cl)Cl)CC2)cc(N(C)C)n1` [compound 470] belongs 3 (Class 3: The value of percent of control at 10^−7 M was more than 60% or the value of IC50 was more than 200 nM.); to `Cc1nc(N[C@H]2CC[C@@H](NC(=O)c3ccc(C(C)(C)C)cc3)CC2)cc(N(C)C)n1` [compound 202], 3 (Class 3: The value of percent of control at 10^−7 M was more than 60% or the value of IC50 was more than 200 nM.).
Next, `Cc1nc(N[C@H]2CC[C@@H](NC(=O)c3cccc4c3-c3ccc([N+](=O)[O-])cc3C4)CC2)cc(N(C)C)n1` [compound 308]: 3 (Class 3: The value of percent of control at 10^−7 M was more than 60% or the value of IC50 was more than 200 nM.); `CCCCCc1ccc(CN[C@H]2CC[C@@H](Nc3cc(N(C)C)nc(C)n3)CC2)cc1` [compound 397]: 3 (Class 3: The value of percent of control at 10^−7 M was more than 60% or the value of IC50 was more than 200 nM.); `Cc1nc(N[C@H]2CC[C@@H](NC(=O)[C@@H](C)c3cccc(C(=O)c4ccccc4)c3)CC2)cc(N(C)C)n1` [compound 309]: 3 (Class 3: The value of percent of control at 10^−7 M was more than 60% or the value of IC50 was more than 200 nM.).
Consider `Cc1nc(N[C@H]2CC[C@@H](NC(=O)c3ccccc3COc3ccccc3)CC2)cc(N(C)C)n1` [compound 331, N-(cis-4-{[6-(dimethylamino)-2-methylpyrimidin-4-yl]amino}cyclohexyl)-[(2-phenyloxy)methyl]benzamide], for which the class is recorded as 3 (Class 3: The value of percent of control at 10^−7 M was more than 60% or the value of IC50 was more than 200 nM.).
In the case of `Cc1nc(N[C@H]2CC[C@@H](NC(=O)c3ccc(OCc4ccccc4)cc3)CC2)cc(N(C)C)n1` [compound 329], the class is recorded as 3 (Class 3: The value of percent of control at 10^−7 M was more than 60% or the value of IC50 was more than 200 nM.).
With `COc1ccc(OC)c(NC(=O)Cc2ccccc2C(=O)N[C@H]2CC[C@@H](Nc3cc(N(C)C)nc(C)n3)CC2)c1` [compound 295], the class is 3 (Class 3: The value of percent of control at 10^−7 M was more than 60% or the value of IC50 was more than 200 nM.).
Take `Cc1nc(N[C@H]2CC[C@@H](NS(=O)(=O)c3c(C)nn(C)c3C)CC2)cc(N(C)C)n1` [compound 513]: the class was 3 (Class 3: The value of percent of control at 10^−7 M was more than 60% or the value of IC50 was more than 200 nM.).
For the compound `Cc1nc(N[C@H]2CC[C@@H](NC(=O)Cc3ccc(SC(F)(F)F)cc3)CC2)cc(N(C)C)n1` [compound 315], the class is listed as 3 (Class 3: The value of percent of control at 10^−7 M was more than 60% or the value of IC50 was more than 200 nM.).
As for `Cc1ccnc(SCC(=O)N[C@H]2CC[C@@H](Nc3cc(N(C)C)nc(C)n3)CC2)n1` [compound 280], the class was 3 (Class 3: The value of percent of control at 10^−7 M was more than 60% or the value of IC50 was more than 200 nM.).
As for `COc1ccc(Oc2ccc([N+](=O)[O-])cc2CN[C@H]2CC[C@@H](Nc3cc(N(C)C)nc(C)n3)CC2)cc1` [compound 377], the class is 3 (Class 3: The value of percent of control at 10^−7 M was more than 60% or the value of IC50 was more than 200 nM.).
In the case of `Cc1nc(N[C@H]2CC[C@@H](NC(=O)CSCc3ccccc3)CC2)cc(N(C)C)n1` [compound 336], the class is reported as 3 (Class 3: The value of percent of control at 10^−7 M was more than 60% or the value of IC50 was more than 200 nM.).
For `Cc1ccc(S(=O)(=O)n2ccc(C(=O)N[C@H]3CC[C@@H](Nc4cc(N(C)C)nc(C)n4)CC3)c2)cc1` [compound 342], the class is listed as 3 (Class 3: The value of percent of control at 10^−7 M was more than 60% or the value of IC50 was more than 200 nM.).
To `CCCCCCCOc1ccc(CN[C@H]2CC[C@@H](Nc3cc(N(C)C)nc(C)n3)CC2)cc1` [compound 396] belongs 3 (Class 3: The value of percent of control at 10^−7 M was more than 60% or the value of IC50 was more than 200 nM.).
Turning to `CCCCCCCOc1ccc(C(=O)N[C@H]2CC[C@@H](Nc3cc(N(C)C)nc(C)n3)CC2)cc1` [compound 251], the class was 3 (Class 3: The value of percent of control at 10^−7 M was more than 60% or the value of IC50 was more than 200 nM.).
Turning to `Cc1nc(N[C@H]2CC[C@@H](NCc3cnn(C)c3Cl)CC2)cc(N(C)C)n1` [compound 410], the class is 3 (Class 3: The value of percent of control at 10^−7 M was more than 60% or the value of IC50 was more than 200 nM.).
Take `Cc1cc(C)c(S(=O)(=O)N[C@H]2CC[C@@H](Nc3cc(N(C)C)nc(C)n3)CC2)c(C)c1` [compound 486]: the class is given as 3 (Class 3: The value of percent of control at 10^−7 M was more than 60% or the value of IC50 was more than 200 nM.).
As to `COc1ccc(CCN[C@H]2CC[C@@H](Nc3cc(N(C)C)nc(C)n3)CC2)cc1OC` [compound 390], the class is 3 (Class 3: The value of percent of control at 10^−7 M was more than 60% or the value of IC50 was more than 200 nM.).

The values above are taken from patent US20090036448A1, “PYRIMIDINE DERIVATIVES AND METHODS OF TREATMENT RELATED TO THE USE THEREOF” (TAISHO PHARMECUTICAL CO., LTD., priority 2004, published 2009).
